Laboratory results published in US20080070942A1, “PRAZOLE DERIVATIVES AND SALTS THEREOF AND USE OF SAME” (JIANGSU HANSEN PHARMACEUTICAL CO., LTD., priority 2004, published 2008).
Marks after values point to notes of the source that are not given here.

Key:
[1] = tested on: gastric ulcer model induced by anhydrous ethanol in rats; assay: Gastric ulcer model induced by anhydrous ethanol in rats; format: in vivo, Wistar rat; parameters: Ulcer area: unit not given beside the values; conditions: for ulcer areas, effect in words: anhydrous ethanol ulcer
Experimental: Wistar rat, weight: 180-220 g, male, obtained from Institute of Zoology, Chinese Academy of Medical Sciences. Compound (I) and Compound (II) of the present invention and sodium rabeprazole, provided by Jiangsu Hansen Pharmaceutical Co., Ltd. The required concentration is prepared with distilled water and the volume for administration of drug is 10 ml/kg. Methods: 40-hour fasting rats were randomly divided into groups and treated with different doses of sodium rabeprazole, compound (I), compound (II) and distilled water (as control) by gastric perfusion, respectively. After 0.5 hour, each rat was administered with 1 ml anhydrous ethanol and then rats were sacrificed 1 hour later. The stomachs were taken out and injected with 10 ml fix solution. After fixed in 3% formaldehyde solution, the stomachs were dissected and the ulcer areas were measured. The significance test was made by t-programme.

[2] = tested on: gastric ulcer model induced by acetic acid in rats; assay: Chronic gastric ulcer model induced by acetic acid in rats; format: in vivo; conditions: x ± s
Experimental: Methods: Abdominal cavities of fasting rats were cut under the anaesthesia of sodium pentobarbital and gently stretched the stomachs. The glandular stomachs near pylons were injected with 20 μl 30% acetic acid and then the abdominal cavities were re-closed. At the day the operation finished, rats were randomly divided into groups and started to be administered with drugs of 10 ml/kg once a day for 10 continuous days. Rats were then sacrificed in the following day when the last drug was administered, and stomachs were taken out and were injected with 10 ml water, and then were put into 3% formaldehyde solution to be fixed for 30 minutes. The stomachs were dissected along their greater curvatures and stretched on a glass plate and the ulcer areas were measured. The significance test was made by t-programme.

[3] = tested on: gastric acid secretion model induced by pylorus ligation in rats; assay: Effect on gastric acid secretion model induced by pylorus ligation in rats; format: in vivo, Wistar rat; conditions: pylorus-ligated rats, 5 hours after operation
Experimental: Wistar rat, weight 180-220 g, male, obtained from Institute of Zoology, Chinese Academy of Medical Sciences. Sodium rabeprazole, compound (II) of the present invention and tenatoprazole, provided by Jiangsu Hansen Pharmaceutical Co., Ltd. Added 1 drop of Tween-80 as a solubilizing assistant and prepared the required concentrations with distilled water. Methods: 48-hour fasting rats were divided into groups randomly. Pylon ligation was carried out under ether anaesthesia. […] The rats were sacrificed at 5 hours after the operation and the gastric juice was collected and measured. The content of HCl in gastric juice is determined by titration with 0.1 mol/L NaOH and the significance test was made by t-programme.

[4] = tested on: ulcer rat models induced by pylori ligation; assay: Ulcer model induced by pylori ligation in rats; format: in vivo
Experimental: Methods: Sixty 40 hour-fasting rats were divided into 6 groups according to Table 2. A pylori ligation operation was carried out under the anaesthesia of ether. […] The stomachs were dissected and the number of gastric ulcers was counted. The result was tested by a significance test of t-programme.

[5] = tested on: ulcer model induced by indomethacin in rats; assay: Gastric ulcer model induced by indomethacin in rats; format: in vivo, Wistar rats
Experimental: Wistar rats, weight: 180-220 g, same number of male and female, provided by Institute of Zoology, Chinese Academy of Medical Sciences. (Certification of Qualification of Animal: scxk Beijing 2000-0006) 0.5% methylcellulose sodium: 2 g/L NaHCO3 is contained and pH value is adjusted to 9.0 with NaOH. Preparation: The drug was porphyrized and diluted with 0.5% methylcellulose sodium to the required concentration. It must be used up in 30 minutes. Methods: Sixty 48-hour fasting rats were divided into six groups and gastric-perfused with different doses of compound (II), sodium rabeprazole and 0.5% methylcellulose sodium (as control), respectively. After 0.5 hour, 20 mg/kg indomethacin was injected into the abdominal cavities. Six hours later, rats were sacrificed by cervical dislocation and the stomachs were taken out. After injected with 10 ml water, stomachs were then fixed in 3% formaldehyde solution. The hemorrhagic spots were counted. A significance test was carried out by t-programme.

in vivo = conditions: dog, 5 mg/kg
Experimental: Methods: Six healthy male beagle dogs with weight 5.5˜6.7 kg were randomly divided into three groups for triple cross over administration. They were perfused with rabeprazole, tenatoprazole and compound (II) respectively after one-night fasting. The dose of each drug was 5 mg/kg. Each dog was fed with 50 ml water by gastric perfusion after administration of the drug. 2 ml blood was taken respectively from forelimb saphenous vein at 0.25, 0.5, 1, 2, 3, 4, 5, 6, 7, 8, 10, 12 hours after tenatoprazole was administered, at 5, 10, 20, 30, 40, 50, 60, 75, 90, 120, 180 minutes after rabeprazole was administered, and at 1, 2, 3, 3.5, 4, 4.5, 5, 6, 7, 8, 10, 12 hours after compound (II) was administered, and then put each blood sample in each test tube treated with EDTA, then centrifuging for 10 min at 3500 rpm. The upper plasma was removed from the test tube into another test tube containing 50 μl 2% NaOH solution and reserved at −20[…]. The plasma drug concentration was determined by HPLC. Cross-over administration to dogs was performed one week later.
The calculation method for pharmacokinetic parameters: compartment model is estimated by software DAS1.0. […] T½=0.693/λz, Tmax and Cmax are are measured values.

[6] = 3 mg/kg by gastric perfusion 0.5 hour before 1 ml anhydrous ethanol
[7] = 10 mg/kg by gastric perfusion 0.5 hour before 1 ml anhydrous ethanol
[8] = 20 μmol/kg once a day for 10 days
[9] = 60 μmol/kg once a day for 10 days
[10] = 6.7 μmol/kg through the duodenum
[11] = 20.0 μmol/kg through the duodenum

Compound	Ulcer area [1, 6]	Ulcer area [1, 7]	ulcer areas, effect in words [1]	Ulcer area [2, 8] [mm^2]	Ulcer area [2, 9]	Amount of gastric acid [3, 10] [mmol/stomach]	Amount of gastric juice [3, 10] [ml/stomach]	Amount of gastric acid [3, 11] [mmol/stomach]	Amount of gastric juice [3, 11] [ml/stomach]	other results
COCCCOc1ccnc(C[S+]([O-])c2nc3cc(OC(F)F)ccc3[n-]2)c1C.[Na+] (stereo not drawn) [Compound (I)]	12.1 ± 18.1	5.5 ± 9.9	more significant effect	–	–	–	–	–	–	–
COCCCOc1ccnc(C[S+]([O-])c2nc3ccccc3[nH]2)c1C (stereo not drawn) [Sodium Rabeprazole]	26.4 ± 20.6	11.1 ± 2.7	reduced	6.2 ± 3.5	4.8 ± 3.1** mm^2	0.25 ± 0.10	4.0 ± 0.7	0.17 ± 0.08	3.7 ± 0.8	No. of ulcers ([4]; 40 μmol/kg through duodenum, pylori ligation, 18 hours, x ± s): 8.9 ± 14.7; Inhibition rate ([4]; 40 μmol/kg, pylori ligation ulcer): 63.2%; ulcers in the rats, effect in words ([4]; pylori ligation ulcer): essentially same function; No. of ulcers ([5]; 40 μmol/kg gastric perfusion, indomethacin 20 mg/kg, x ± s): 3.1 ± 4.6; Inhibition rate ([5]; 40 μmol/kg, indomethacin ulcer): 72.3%; hemorrhagic spots on gastric mucosal induced by indomethacin, effect in words ([5]; gastric perfusion): lower than that of compound (II)
COc1ccc2[nH]c([S+]([O-])Cc3ncc(C)c(OC)c3C)nc2n1 (stereo not drawn) [Tenatoprazole, tenatoprazole]	–	–	–	7.6 ± 3.6	5.8 ± 3.6* mm^2	0.16 ± 0.06	2.8 ± 0.7	0.14 ± 0.03	2.8 ± 0.5	AUC (in vivo; male, beagle, po, AUC): 18000 ng·h/mL; AUC (in vivo; male, beagle, po, AUC^12): 16900 ng·h/mL; Cmax (in vivo; male, beagle, po, Cmax): 4280 ng/mL; MRT (in vivo; male, beagle, po, MRT): 5.4 h; half-life (in vivo; male, beagle, po, T1/2): 3.74 h
COCCCOc1ccnc(C[S+]([O-])c2nc3ccccc3[nH]2)c1C (stereo not drawn) [rabeprazole]	–	–	–	–	–	–	–	–	–	half life (in vivo): less than half hour
